Experimental data published in ChEMBL document CHEMBL1128153, “Acetylcholinesterase inhibition by alkaloids of the ant's venom Monomorium minutum” (Bioorg Med Chem Lett, 1995).
pKi: −log10 of the molar value.

How the values were obtained:
ant = test: Evaluated for the amount of compound present in ant's venom Monomorium minutum.; type: functional
[1] = Partition coefficient (logP); type: physicochemical; settings: octanol/water
Acetylcholinesterase = Acetylcholinesterase (Electrophorus electricus, UniProt O42275)
Chain of Acetylcholinesterase (O42275 whole entry): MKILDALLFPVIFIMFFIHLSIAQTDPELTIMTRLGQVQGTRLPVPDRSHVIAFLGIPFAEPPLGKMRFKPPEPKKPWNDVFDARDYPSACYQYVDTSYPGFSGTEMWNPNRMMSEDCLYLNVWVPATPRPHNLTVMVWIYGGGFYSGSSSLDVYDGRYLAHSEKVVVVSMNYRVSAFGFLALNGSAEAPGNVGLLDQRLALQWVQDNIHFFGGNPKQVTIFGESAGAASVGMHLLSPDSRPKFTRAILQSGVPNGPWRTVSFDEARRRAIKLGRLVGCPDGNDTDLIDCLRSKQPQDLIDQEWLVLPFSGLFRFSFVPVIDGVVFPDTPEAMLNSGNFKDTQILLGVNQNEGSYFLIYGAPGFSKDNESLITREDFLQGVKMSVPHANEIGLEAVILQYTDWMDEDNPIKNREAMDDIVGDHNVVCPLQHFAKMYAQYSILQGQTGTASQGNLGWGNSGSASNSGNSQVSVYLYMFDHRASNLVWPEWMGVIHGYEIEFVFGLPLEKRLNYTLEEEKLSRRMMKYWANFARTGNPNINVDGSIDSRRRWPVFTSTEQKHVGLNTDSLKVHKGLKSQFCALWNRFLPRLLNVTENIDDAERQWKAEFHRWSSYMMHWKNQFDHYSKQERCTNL
Description: Tested for in vitro inhibition of acetylcholinesterase

| SMILES | Venom (ant) [%] | logP [1] | pKi (Acetylcholinesterase) |
| --- | --- | --- | --- |
| C=CCCCCCCCC1=NC(CCCCC=C)CC1 (stereo not drawn) | 0.2 | 8.02 | 4.89 |
| C=CCCCCCCCC1CCC(CCCCC=C)N1 (stereo not drawn) | 29.8 | 7.32 | 5.60 |
| C=CCCCCC1=NC(CCCCCCCCC)CC1 (stereo not drawn) | 4.4 | 8.39 | 5.30 |
| CN(C)C(=O)Oc1cccc([N+](C)(C)C)c1 [NEOSTIGMINE BROMIDE] | – | – | 6.00 |
| C=CCCCCC1CCC(CCCCCCCCC)N1 (stereo not drawn) | 58.7 | 7.68 | 5.82 |
